# Assay results: US20230065562A1, “DUAL CONTROLS FOR THERAPEUTIC CELL ACTIVATION OR ELIMINATION” (Bellicum Pharmaceuticals, Inc., priority 2015, published 2023)
# pEC50, pIC50: −log10 of the molar value. Where two headings read alike, the source gives them in different places.
# Experiments:
# cells = test: AP1903 amount needed in vitro for effective signaling of cells; format: cell-based
# Procedure: This equates to 16-160 μg/L or […] (1.6-160 μg/kg).
# human CD3+CD19+ T cells = test: AP1903 dose-dependent elimination in vivo of iCasp9-transduced T cells; parameters: species or system immune deficient mice (NSG); conditions: mouse
# Procedure: The Caspase-9 polypeptide has a dose-response curve in vivo, which could be used to eliminate a variable fraction of T cells expressing the Caspase-9 polypeptide.
# T cells were transduced with SFG-iCasp9-D330E-2A-ΔCD19 retrovirus and injected i.v. into immune deficient mice (NSG). […] After an additional 24 hours, mice were sacrificed and lymphocytes from the spleen (A) were isolated and analyzed by flow cytometry for the frequency of human CD3^+CD19^+ T cells.
# 293 cells [1] = test: SEAP assay: FRB-tagged CAR plus iCaspase-9 in 293 cells; format: cell-based
# Description: FIGS. 6A and 6B provide the results of an assay of two-tiered activation of apoptosis.
# As a proof of principal, two tandem FRB, domains were fused to either a 1st generation Her2-CAR or to a 1st generation CD19-CAR co-expressing inducible Caspase-9. 293 cells were transiently transfected with a constitutive reporter plasmid, SRα-SEAP, along with normalized levels of expression plasmids encoding Her2-CAR-FRB2, iCaspase-9, Her2-CAR-FRBl2+iCasp9, iC9-CAR(19).FRBl2 (coexpressing both CD19-CAR-FRBl2 and iCaspase9), or control vector. […] After overnight incubation with drugs, SEAP activity was determined. […] This dose-dependent decrease required the presence of both the FRB-tagged CAR and the FKBP-tagged Caspase-9. […] Moreover, on- or off-target-mediated CAR clustering should increase the sensitivity of killing primarily at the site of scFv engagement.
# [2] = cited from earlier work
# [3] = tested on: CD3+ΔCD19+ (iCasp9+) T cells; test: CASPALLO phase 1 clinical trial: AP1903 in patients with GvHD after iCasp9+ T cells; conditions: human, in vivo
# [4] = molecular target: wt FRB (K2095 T2098 W2101) (Homo sapiens, UniProt P42345+P62942); conditions: cited from earlier work
# FRB-PLF = FRB-PLF (Homo sapiens, UniProt P42345+P62942, K2095P/T2098L/W2101F); conditions: cited from earlier work
# 293 cells [5] = test: 293 cells transfected with iC9 or iRC9: caspase 3/7 (IncuCyte) and SRα SEAP assays; format: cell-based
# Procedure: 293 cells were seeded at 300,000 cells/well in a 6-well plate and allowed to grow for 2 days. After 48 h, cells were transfected with 1 μg of experimental plasmids. Cells were harvested 48 h after transfection and diluted 2.5× their original volume.
# For FIG. 52B left graph, the lines of the graph, as indicated at the 10^3 point of the x-axis are, from top to bottom, negative control, FKBP.FRB.C9, FRB.FKBP.C9, iC9. For FIG. 52B right graph, the lines of the graph at the 10^3 point of the x-axis are, from top to bottom negative control, iC9, FKBP.FRB.C9, and FRB.FKBP.C9.
# On day 0, 5×10^5 293 cells were seeded onto 6-well plates in 2 ml DMEM medium (10% FBS+1% pen/strep). […] On day 2, cells were collected, and seeded onto 96-well plates containing 2× concentrated half-log drug dilutions and also analyzed by FACS for transfection efficiency. On day 3, the drug-treated cells were heat inactivated at 68° C. for 1 hour and supernatants were added to black 96-well plate containing 1 mM MUP substrate (2× concentration) diluted in 2M diethanolamine. The plates were incubated at 37° C. for 30 min and absorbance at 405 nm was measured.
# HPAC PSCA+ tumor cells = test: T cell anti-tumor assay with HPAC-RFP cells (IncuCyte, ELISA); format: cell-based, human; conditions: 10 nM on day 7 of co-culture
# Procedure: PBMCs from donor 920 were activated and co-transduced with GFP-Ffluc and iMC+CARζ-T (189), i9+CARζ+MC (873), or FwtFRBC9/MC.FvFv (1308)-encoding vectors. […] (A & B) Two days post-seeding, culture supernatants were analyzed for IL-2, IL-6, and IFN-γ production by ELISA. […] Numbers of HPAC-RFP and T cell-GFP at the E:T 1:2 ratio was analyzed using the basic analyzer software for the IncuCyte at day 7 (Ci) and day 8 with 0 nM suicide drug (Cii) and 10 nM suicide drug (Ciii). Similar analysis was also performed at the 1:5 E:T ratio (D). (Note: the y-axis in Ci and Di are at log-scale).
# The HPAC PSCA^+ tumor cells were stably labeled with nuclear-localized RFP protein using the NucLight™ Red Lentivirus Reagent (Essen Bioscience, 4625). To set up the coculture, 4000 HPAC-RFP cells were seeded per well of 96-well plates in 100 μl of CTL medium without IL-2 for at least 4 hours to allow tumor cells to adhere. After transduction with the appropriate retrovirus and allowed to rest for at least 7 days in culture, T were seeded according to various E:T ratios to the HPAC-RFP-containing 96-well plates. […] Each plate was set up in duplicates, one plate to monitor with the IncuCyte cell imaging system and one plate for supernatant collection for ELISA assay on day 2. The plates were centrifuged for 5 min at 400×g and placed inside the IncuCyte (Essen Bioscience, Dual Color Model 4459) to monitor red fluorescence (and green fluorescence if T cells were labeled with GFP-Ffluc) every 2-3 hours for a total of 7 days at 10× objective. Image analysis was performed using the “HPAC-RFP_TcellsGFP_10×_MLD” processing definition. On day 7, HPAC-RFP cells were analyzed using the “Red Object Count (1/well)” metric. […] On day 8, Tcell-GFP cells were analyzed using the “Total Green Object Integrated Intensity” metric. Each condition was performed at least in duplicates and each well was imaged at 4 different locations.
# [6] = tested on: T cells expressing ΔC9 alone (pBP1501); test: T cell killing assay with caspase 3/7 green reagent monitored by IncuCyte, negative control ΔC9; format: cell-based, human; conditions: increasing doses, FIG. 108B
# Description: To determine the functionality of these switches in activated T cells, retroviral supernatants were produced and transduced into PBMCs activated from 3 separate donors.
# [7] = tested on: iRC9 T cells (pBP1310, GFP-Fluc); test: In vivo apoptotic activation in NSG mice, iRC9 T cells (IVIS imaging, spleen FACS); parameters: species or system mouse; conditions: 10 mg/kg rapamycin i.p., at 24 hours, FIG. 109D
# Procedure: (§1) PBMCs from donor 676 were activated and co-transduced with one of the off-switches and GFP-Fluc retroviruses. Eleven days after transduction, cells were analyzed for transduction efficiency with GFP and anti-CD3/anti-CD19 antibodies (FIG. 109A). […] The CD19^+ MFI for the different T cell populations were: iC9=15.07, iRC9=14.38, and iRmC9=13.39. The cells were collected, counted, washed, and resuspended at 1×10^6 cells in 100 μl PBS for each tail vein mouse injection (Table 10) (time=−18 hr). […] IVIS imaging was performed at −14, 0, 5, 24 and 29 hours. Mice were sacrificed and spleens were collected for FACS analysis with hCD3, hCD19 and mCD45 antibodies. […] The higher percentage of remaining iRmC9 T cells observed may be due to an artifact of normalizing the no drug group.
# PBMCs from donor 676 were activated and co-transduced with retroviruses encoding the pBP0220, 1310, 1327 vectors and the GFP-Fluc plasmid. (FIG. 109A) Eleven days post transduction, the cells were analyzed for CD19 and GFP transduction efficiency prior to injection into mice. (FIGS. 109B & C) NSG mice were injected i.v. with 107 T cells co-transduced with GFP-Fluc per mouse and suicide drugs were injected i.p. the next day. Bioluminescence of cells was assessed at −14, 0, 5, 24, and 29 hours post-drug administration. […]
# [8] = tested on: iRmC9 T cells (pBP1327, GFP-Fluc); test: In vivo apoptotic activation in NSG mice, iRmC9 T cells (IVIS imaging, spleen FACS); parameters: species or system mouse; conditions: 5 mg/kg rimiducid or 10 mg/kg rapamycin i.p.; spleen FACS, FIG. 109D
# Procedure: as §1
# PBMCs from donor 676 were activated and co-transduced with retroviruses encoding the pBP0220, 1310, 1327 vectors and the GFP-Fluc plasmid. (FIG. 109A) Eleven days post transduction, the cells were analyzed for CD19 and GFP transduction efficiency prior to injection into mice. (FIGS. 109B & C) NSG mice were injected i.v. with 107 T cells co-transduced with GFP-Fluc per mouse and suicide drugs were injected i.p. the next day. Bioluminescence of cells was assessed at −14, 0, 5, 24, and 29 hours post-drug administration. (FIG. 109D) At 29-h post-drug treatment, mice were euthanized and spleens were collected for flow cytometry analysis with antibodies to hCD3, […], and mCD45
# 293 cells [9] = tested on: 293 cells
# Procedure: FIG. 12B: Cultures of HEK-293 cells were transfected (via Genejuice, Novagen) with the constitutive SRα-SEAP reporter plasmid (pBP0046, 1 μg), a fusion of human FKBP12 with human Caspase-9 (pBP0044, 2 μg) and FRB-encoding expression constructs, containing four copies of FRBL (pBP0725, 2 μg) or control vectors encoding zero or one copy of FRBL.
# To determine if iCaspase-9 could be aggregated by tandem multimers of FRBL, one to four tandem copies of FRBL were subcloned into an expression vector, pSH1, driving transgene expression from an SRα promoter. […] 293 cells were transfected with the SRα-SEAP reporter plasmid along with FKBP12-ΔCaspase-9 (iCaspase-9/iC9), plus 1 of several FRB-based, non-myristoylated scaffold proteins containing 0, 1, or 4 tandem copies of FRBL.
# 293 cells [10] = tested on: 293 cells; remark: listed apart in the source
# Description: To determine if the polarity of heterodimerization and Caspase-9 assembly could be reversed, one to four 1 to 4 tandem copies of FKBP12 were subcloned into expression vector, pSH1, as above. […] As above, 293 cells were transfected with the SRα-SEAP reporter plasmid along with FRBL-ΔCaspase-9, plus a non-myristoylated scaffold protein containing 1 or 4 tandem copies of FKBP12.
# [11] = tested on: dual-switch TCR-modified T cells; conditions: 10 nM Rap; 14±4% without drug
# [12] = tested on: EGFPluciferase-labeled T cells; test: In vivo function of rapamycin/rimiducid-inducible Caspase-9 switches in NSG mice (luciferase-labeled T cells)
# Procedure: T cells were activated and co-transduced with the “iMC+CARζ”, SFG-iMC-2A-CAR.ζ vector, and a iC9-X vector, SFG-FRB.FKBP12.C9-2A-ΔCD19 to create a CombiCAR.
# 8-week-old female, immune-deficient mice (NOD.CgPrkdc^scidIl2^tm1Wjl/SzJ; NSG) were injected IV with 1×10^6 T cells in 100 p1 PBS. Mice were subjected to IVIS imaging ˜4 hrs after T cell injection (˜14 hrs post-drug administration). […] Mice were imaged again at 5-6 hrs, and 24 hrs after drug injection. Mice were sacrificed and spleens were removed for FACS analysis.
# Mice were imaged for firefly luciferase-derived bioluminescence at the indicated time points relative to administration of drug or vehicle.
# FRB-KTF = FRB-KTF (Homo sapiens, UniProt P42345+P62942, W2101F); conditions: cited from earlier work
# Sequence of FRB-KTF (P42345 2012-2144 W2101F limits assumed): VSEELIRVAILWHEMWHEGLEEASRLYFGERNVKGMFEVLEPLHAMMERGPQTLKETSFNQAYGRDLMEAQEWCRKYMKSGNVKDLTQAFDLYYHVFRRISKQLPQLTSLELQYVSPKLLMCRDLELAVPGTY
# Sequence of FRB-KTF (P62942 2-108 limits assumed): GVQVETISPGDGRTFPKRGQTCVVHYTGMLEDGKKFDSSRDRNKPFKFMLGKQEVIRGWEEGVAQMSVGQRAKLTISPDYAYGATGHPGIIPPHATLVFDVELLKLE
# Sequence of wt FRB (K2095 T2098 W2101) (P42345 2012-2144 limits assumed): as the sequence (P42345 2012-2144 W2101F limits assumed) above, with F90W counted along it
# Sequence of wt FRB (K2095 T2098 W2101) (P62942 2-108 limits assumed): as the sequence (P62942 2-108 limits assumed) above
# Sequence of FRB-PLF (P42345 2012-2144 K2095P/T2098L/W2101F): as the sequence (P42345 2012-2144 W2101F limits assumed) above, with K84P, T87L counted along it
# Sequence of FRB-PLF (P62942 2-108): as the sequence (P62942 2-108 limits assumed) above
molecule,measurement,setting,value
"CC[C@H](C(=O)N1CCCC[C@H]1C(=O)O[C@H](CCc1ccc(OC)c(OC)c1)c1cccc(OCC(=O)NCCNC(=O)COc2cccc([C@@H](CCc3ccc(OC)c(OC)c3)OC(=O)[C@@H]3CCCCN3C(=O)[C@@H](CC)c3cc(OC)c(OC)c(OC)c3)c2)c1)c1cc(OC)c(OC)c(OC)c1 (relative stereo) [AP1903, 2-Piperidinecarboxylic acid, 1-[(2S)-1-oxo-2-(3,4,5-trimethoxyphenyl)butyl]-, 1,2-ethanediylbis[imino(2-oxo-2,1-ethanediyl)oxy-3,1-phenylene[(1R)-3-(3,4-dimethoxyphenyl)propylidene]] ester, [2S-[1(R*),2R*[S*[S*[1(R*),2R*]]]]]-(9C1)]",amount needed in vitro for effective signaling of cells,cells,10 to 100 nM
same,dose sufficient to eliminate most modified T cells in vivo,human CD3+CD19+ T cells,0.5 mg/kg
same,"SEAP activity, % of normal levels",293 cells [1]; iCaspase-9,about 20%
same,safety and tolerability in healthy volunteers,"[2]; 0.01-1.0 mg/kg, listed as API 903",No significant adverse effects
same,adverse event considered possibly related to AP1903,[2]; 1 volunteer at 1.0 mg/kg,vasodilatation
same,"plasma level, % of maximal concentration at 2 hours post-dose",[2]; IV infusion over 2 hours,~7%
same,"plasma level, % of maximal concentration at 10 hours post-dose",[2]; IV infusion over 2 hours,~1%
same,serious adverse events,[2]; Phase 1 study in volunteers,No serious adverse events
same,well-tolerated doses,[2]; Phase 1 study,up to 1 mg/kg
same,further reduction of CD3+ΔCD19+ cells within 24 hours,[3],further log reduction
same,time to resolution of skin and liver aGvHD,[3],≤ 24 h
CO[C@@H]1C[C@H](C[C@@H](C)[C@@H]2CC(=O)[C@H](C)/C=C(\C)[C@@H](O)[C@@H](OC)C(=O)[C@H](C)C[C@H](C)/C=C/C=C/C=C(\C)[C@H](OC(C)C)C[C@@H]3CC[C@@H](C)[C@@](O)(O3)C(=O)C(=O)N3CCCC[C@H]3C(=O)O2)CC[C@H]1O [R-Isopropoxyrapamycin],pEC50,[4],~6.52
same,pEC50,FRB-PLF,~8.07
CO[C@H]1C[C@@H]2CC[C@@H](C)[C@@](O)(O2)C(=O)C(=O)N2CCCC[C@H]2C(=O)O[C@H]([C@H](C)C[C@@H]2CC[C@@H](O)[C@H](OC)C2)CC(=O)[C@H](C)/C=C(\C)[C@@H](O)[C@@H](OC)C(=O)[C@H](C)C[C@H](C)/C=C/C=C/C=C/1C [rapamycin],maximal decrease of SEAP activity,293 cells [1]; FRB-tagged CAR plus FKBP-tagged Caspase-9,~50%
same,rapamycin concentration at which iRC9 is highly active,293 cells [5],100 µM
same,elimination of FwtFRBC9/MC.FvFv T cells within 24 hours,HPAC PSCA+ tumor cells,more than 60%
same,activity of negative control ΔC9 alone (pBP1501) in T cells,[6],not active
same,iRC9 T cells remained in splenocytes compared to no drug- and rimiducid-treated groups,[7],~25%
same,iRmC9 T cells remained in splenocytes (normalized to no drug group),[8],~40%
same,pIC50,293 cells [9],~8.52
same,pIC50,293 cells [10],~8.52
same,Annexin-V+ cells,[11],72±5%
same,cell death of T cells within 24 hours in vivo,[12],90%
S-Butanesulfonamidorap [S-Butanesulfonamidorap (AP23050)],pEC50,[4],~8.57
same,pEC50,FRB-KTF,< 6.70
